Measurements taken from patent publication US8841325B2, “Immunomodulatory compounds for the restoration of vitamin D sensitivity in vitamin D resistant tumor cells” (Celgene Corporation, priority 2009, dated 2014).

How the values were obtained:
Type in all cases: cell-based
MDA-MB-231 cells [1] = experiment: Cell growth by Sulphorhodamine B (SRB) assay, MDA-MB-231
Procedure: (§1) Cells were seeded in 24 wells plates at a density of 10^4 cells per well and allowed to adhere for 24 hours. To determine the combination effects of the drugs, cells were treated with 100 nM 1,25 D3 and 10 nM 1-oxo-2-(2,6-dioxopiperidin-3-yl)-4-aminoisoindoline or 1,3-dioxo-2-(2,6-dioxopiperidin-3-3-yl)-4-aminoisoindoline. Each treatment was carried out for up to 7 days, but renewed every 2 days. Cell growth was then determined by Sulphorhodamine B (SRB) assay, measuring absorbance at 550 nm.
as §1, with “per wekk” for “per well”, “and varying doses of” for “and 10 nM”, “or 1,3-dioxo-2-(2,6-dioxopiperidin-3-yl)-4-aminoisoindoline.” for “or 1,3-dioxo-2-(2,6-dioxopiperidin-3-3-yl)-4-aminoisoindoline.”
After 6 days treatment, cells were seeded in 24 well plates at a density of 1×10^4 cells/well. After 24 h cells were treated with reagents or vehicle for up to six days. Cells were treated for up to 6 days with log doses of Thalidomide (0.1 μM up to 100 μM), pomalidomide and lenalidomide (0 μM up to 10 μM). At the end of each experiment, cells were fixed to the bottom of the well by addition of ice-cold 50% w/v trichloroacetic acid (TCA) to give a final concentration of 10% TCA. Plates were incubated at 4° C. for 30 minutes and then washed with distilled water. Plates were allowed to air-dry at room temperature before staining with 0.4% w/v SRB in 1% v/v acetic acid and incubated for 15 minutes on a shaker. The plates were then extensively washed with 1% acetic acid to remove unbound dye and were again allowed to air-dry at room temperature. Incorporated dye was solubilised with 200 μl […] Tris base. 100 μl aliquots were transferred to a 96 well plate and absorbance at 550 nm was determined

MDA-MB-231 cells [2] = experiment: PARP cleavage assay (Western blot)
Procedure: Cells were plated in 75 cm^2 flasks and cultured for 6 days with 1 μl/mL DMSO (control) or 1 μM 1-oxo-2-(2,6-dioxopiperidin-3-yl)-4-aminoisoindoline and 100 nM 1,25 D3, each alone or in combination. For each time point, medium was removed and cells were washed with ice-cold PBS. Cells were then lysed with RIPA buffer (1% NP40, 0.5% sodium deoxycholate, 0.1% SDS, PBS) and the lysate was centrifuged at 13000 rpm for 20 minutes at 4° C. The supernatant was collected and an aliquot taken for measuring protein concentration. The protein estimation was determined for each lysate using the Bio-Rad DC Protein Assay Kit according to the manufacturer's instructions. The protein extract was mixed with SDS (1/4), sonicated 10 seconds, and protein concentration was determined by Bradford assay.
SDS-polyacrylamide gel electrophoresis (SDS-PAGE) was run on a Mini Trans-Blot Module apparatus (Bio-Rad). The percentage of polyacrylamide/bis-acrylamide in the resolving gel in this experiment was 12% v/v. The following reagents were used for stacking gel: 0.67 mL 30% acrylamide/bis-acrylamide; 2.7 mL H2O; 0.5 mL 1M trizma; 0.01 mL 10% ammonium persulfate; and 0.04 mL SDS. The following reagents were used for resolving gel: 3.3 mL 30% acrylamide/bis-acrylamide; 4 mL H2O; 2.5 mL 1M trizma; 0.1 mL 10% ammonium persulfate; and 0.1 mL 10% SDS.
Once the resolving gel was prepared, polymerization was initiated by addition of 10 μl N′,N′,N′,N′-teramethylethylene-diamine (TEMED). Lysates were boiled for 5 minutes and chilled on ice then loaded into the stacking gel, with volumes adjusted so that equal amounts of protein were loaded. Rainbow colored markers (Sigma Aldrich) were also added in one well to monitor the electrophoretic solution. Electrophoresis was performed at 40 mA constant current for 1 to 2 hours in running buffer (10×25 mM trizma, 192 mM glycine, 0.1% SDS).
For western blotting, the proteins were transferred from the gel onto Hybond C-Super nitrocellulose membrane (Amersham International, U.K.) in a Mini Trans-Blot apparatus (Bio-Rad) according to the manufacturer's instructions. Transfer was performed at 100 V for 1.5 to 2 hours in transfer buffer (25 mM Tris base, 192 mM glycine, 20% methanol, pH 8.2). The nitrocellulose was blocked after 1 hour with milk solution (PBS 1×, 1% Tween 20, 1% Triton X100, 5% fat-free milk). The membrane was then stained for 1 hour with the primary antibodies Total-PARP and Cleaved-PARP in the milk solution. The membrane was washed with milk solution and stained with secondary antibody (anti-rabbit from Sigma Aldrich) for 1 hour. […] The membrane was then wrapper in cling-film and placed in a cassette and, in the dark, pieces of autography film (GRI) were placed over it and left for the desired time before being put through a developer.
Cells were lysed in RIPA buffer containing 1% NP40, 0.5% sodium deoxycholate, 0.1% SDS, PBS. Equal amounts of protein (20 μg per lane) were subjected to SDS-PAGE and transferred to nitrocellulose membranes. Membranes were blocked with 5% milk in 0.05% Tween-20/TBS and then incubated with the first antibody in 0.5% milk overnight. Membranes were then incubated with the secondary anti-mouse or anti-rabbit horseradish peroxidase conjugated antibody. Bands were visualised using the enhanced chemiluminescence Western blotting detection system (ECL, Amersham, N.J., USA). Densitometric analysis was performed using Adobe Photoshop CS2. Anti-cleaved PARP and anti-total PARP antibodies (New England biolab, Cell Signalling), were used at a dilution of 1/1000 and anti-rabbit (AbCam, UK), at a dilution of 1/5000.
Cells were also treated with 0.1% DMSO as a control. […] Cells treated with 0.1% DMSO were used as a control (day 0). Cell lysates were probed for cleaved-PARP(C-PARP) and total PARP (T-PARP). Data shown are representative of three identical experiments.

MCF-7 cells = experiment: Cell viability by neutral red assay, MCF-7
Procedure: Cells were seeded in 24 wells plates at a density of 10^4 cells per well and allowed to adhere for 24 hours. […] The drug was renewed every 2 days. Cell viability was then determined by neutral red assay, measuring absorbance at 550 nm.
After 6 days treatment, cells were seeded into 24 well plates at a density of 1×10^4 cells/wells. After 24 h, cells were treated with reagents or vehicle for up to six days. At the end of the incubation period, medium was removed and cells were incubated with neutral red solution (40 μg/ml in phenol red and serum free DMEM) for 2 h at 37° C. After removal of the neutral red solution, wells were rinsed once with 1 ml 4% formal saline containing 0.5% CaCl2. Plates were inverted on paper towel to drain and 200 μl of elution fluid (1% acetic acid in 50% ethanol) was added. Following incubation at room temperature for 30 min with gentle shaking, absorbance at 550 nm was determined

[3] = single agent: 1 μM lenalidomide or 100 nM 1,25 D3 alone, up to 6 days

C=C1/C(=C\C=C2/CCC[C@]3(C)[C@@H]([C@H](C)CCCC(C)(C)O)CC[C@@H]23)C[C@@H](O)C[C@@H]1O [1,25-D3, 1α,25-dihydroxyvitamin D3]
effect on cell growth (MDA-MB-231 cells [1]; 100 nM 1,25-D3 or 1 μM IMiD alone, up to 6 days): no effect
PARP cleavage (MDA-MB-231 cells [2]; [3]): no effect
PARP cleavage (MDA-MB-231 cells [2]; single agent: 1 μM lenalidomide or 100 nM 1,25 D3 alone, up to 6 days, listed as vitamin D): no PARP cleavage
inhibition of viability (MCF-7 cells; 100 nM 1,25-D3 alone, up to 6 days, FIG. 7A): 40%
sensitivity of cell viability to vitamin D agent treatment (MCF-7 cells; 1,25 D3 0-100 nM, 7 days, FIG. 1): showed sensitivity

Nc1cccc2c1CN(C1CCC(=O)NC1=O)C2=O (stereo not shown) [Lenalidomide, 1-oxo-2-(2,6-dioxopiperidin-3-yl)-4-aminoisoindoline]
inhibition at 10 µM (MDA-MB-231 cells [1]; Homo sapiens, MDA-MB-231, 144 h, single agent, 10 μM lenalidomide (highest dose), up to 6 days): 28%
minimal concentration giving statistically significant inhibition of growth (MDA-MB-231 cells [1]; in the presence of 100 nM 1,25 D3, up to 7 days, FIG. 3): 1 µM
inhibition of growth (MDA-MB-231 cells [1]; single agent, 10 μM lenalidomide (highest dose), up to 6 days): 20%
PARP cleavage (MDA-MB-231 cells [2]; 1 μM lenalidomide in combination with 100 nM 1,25 D3, up to 6 days): starts to be cleaved after 2 days of treatment
PARP cleavage (MDA-MB-231 cells [2]; 1 μM lenalidomide in combination with 100 nM 1,25 D3, up to 6 days, listed as 1-oxo-2-(2,6-dioxopiperidin-3-yl)-4-aminoisoindoline): significant level of cleaved PARP
PARP cleavage (MDA-MB-231 cells [2]; [3]): no effect
PARP cleavage (MDA-MB-231 cells [2]; single agent: 1 μM lenalidomide or 100 nM 1,25 D3 alone, up to 6 days, listed as 1-oxo-2-(2,6-dioxopiperidin-3-yl)-4-aminoisoindoline): no PARP cleavage
effect on cell viability (MCF-7 cells; single agent, up to 6 days, Thalidomide 0.01-100 μM, CC-4047 and lenalidomide 0.001-10 μM, FIG. 6A): do not Affect
